Data set [1] can be described thus: Pharmacokinetics (rat), plasma gadolinium by ICP-MS. The format is in vivo, Sprague Dawley rats. Conditions: 1.3 umol/kg iv bolus in 80 mM sucrose, pH 7, plasma 2-90 minutes. The procedure:
Compound ID No. 1 was formulated at pH 7 in 80 mM sucrose and administered to Sprague Dawley rats (n=2) at dose of 1.3 umol/kg using a bolus IV injection. Plasma was sampled at 2, 5, 15, 30, and 90 minutes post-injection and analyzed for gadolinium content using ICP-MS (FIG. 15).

For data set [2], the system named is liver fibrosis. Briefly: Detection of liver fibrosis by MRI, mouse CCl4 model. The settings on record: 10 μmol/kg i.v., out to 45 minutes, 7T. The format is in vivo, C57BL/6 male mice. The procedure:
Strain C57BL/6 male mice at approximately 3 weeks of age were purchased from Jackson Laboratory (Bar Harbor, Me.). All mice were randomly assigned to two groups: a control group (n=3) and a CCl4 group (n=8). Mice were treated three times a week for 10 weeks with either 0.04 mL of a 40 percent solution of CCl4 (Sigma, St. Louis, Mo.) in olive oil or with vehicle (olive oil only) by oral gavage. Animals from both models were imaged one week after the last injection. Mice were imaged on a 7T pre-clinical […] scanner (Bruker Biospin, Billerica, Mass.). Mice were imaged before and immediately after a 10 μmol/kg intravenous injection of COMPOUND ID NO. 1 and imaging was repeated out to 45 minutes post-injection. Following imaging, animals were sacrificed 50 min post COMPOUND ID NO. 1 injection and sections of each of the liver lobes were taken for gadolinium analysis by ICP-MS, hydroxyproline (Hyp) determination, and histology (Sirius Red staining). From the MRI data, the contrast to noise ratio (CNR, where CNR=(signal liver-signal muscle)/noise) was calculated for the liver before and at repeated time points after 10 μmol/kg injection of the COMPOUND ID NO. 1. After probe COMPOUND ID NO. […] Plots of CNR as a function of time post injection were made and the area under this CNR vs time curve was calculated. […] 1 in liver as assessed by gadolinium measurement (R^2=0.83). […]

Data set [3] concerns liver fibrosis. Briefly: Detection of liver fibrosis by MRI, rat bile duct ligation model. In kind it is in vivo, male CD rats. The settings on record: 10 μmol/kg i.v., 30 minutes, 1.5 tesla. The source says:
Liver fibrosis was induced in male CD rats (n=8) by ligation of the common bile duct (Charles River Labs, Wilmington, Mass.). Control animals (n=12) underwent a control procedure. Rats were imaged 19 days following ligation. Rats were imaged on a 1.5-tesla clinical MRI scanner (Siemens Healthcare, Malvern, Pa.) using a home-built, transmit-receive solenoid coil. Animals were anesthetized with 1-2% isoflurane and respiration rate was monitored with a small animal physiological monitoring system (SA Instruments, Inc., Stony Brook, N.Y.). Respiratory-gated, 3D Inversion Recovery (IR) Fast Low Angle Shot (FLASH) images were acquired prior to and 30 minutes following intravenous administration of 10 μmol/kg COMPOUND ID NO. 1. A non-selective inversion pulse was used and images were acquired with inversion recovery times of 50, 100, 200, 250, 300, 400 and 1000 ms. Image acquisition parameters consisted of an echo time of TE=2.44 ms, field-of-view FOV=120×93 mm, matrix=192×150 (0.625 mm in-plane resolution), slice thickness=0.6 mm, and 36 image slices. […] Following imaging, animals were sacrificed and liver tissue was subjected to pathologic scoring of fibrosis and analyzed for hydroxyproline content. […]
Liver fibrosis was detected by MRI by measuring the change in liver R1 after injection of COMPOUND ID NO. […]

1 compound from patent US20180185520A1, “COLLAGEN IMAGING COMPOSTIONS” (Collagen Medical, LLC, priority 2015, published 2018) can be followed below.

Turning to `CC(C)C[C@H](NC(=O)[C@@H]1CSSC[C@H](NC(=O)[C@H](Cc2c[nH]cn2)NC(=O)[C@H](Cc2c[nH]c3ccccc23)NC(=O)[C@H](CCCCNC(=O)CC[C@H](C(=O)O)N2CCN(CC(=O)O)CCN(CC(=O)O)CCN(CC(=O)O)CC2)NC(=O)CNC(=O)CC[C@H](C(=O)O)N2CCN(CC(=O)O)CCN(CC(=O)O)CCN(CC(=O)O)CC2)C(=O)N[C@@H]([C@@H](C)O)C(=O)N[C@@H]([C@@H](C)O)C(=O)N[C@@H](CCCCNC(=O)CC[C@H](C(=O)O)N2CCN(CC(=O)O)CCN(CC(=O)O)CCN(CC(=O)O)CC2)C(=O)N[C@@H](Cc2ccccc2)C(=O)N2CCC[C@H]2C(=O)N[C@@H](Cc2c[nH]cn2)C(=O)N[C@@H](Cc2c[nH]cn2)C(=O)N[C@@H](Cc2ccc(O)cc2)C(=O)N1)C(=O)N[C@@H](Cc1ccc(O)cc1)C(=O)N[C@@H](Cc1ccc(-c2ccccc2)cc1)C(N)=O` [Compound ID No. 1], the pharmacokinetic profile entry in data set [1] was “rapid initial blood clearance”. The entries for the “area under the CNR vs time curve (liver)” value with liver fibrosis [2] (CCl4 treated mice) and with liver fibrosis [2] (vehicle (olive oil) treated control mice given the probe) were 1447±192 and 889±173, respectively. The “ΔR1 (change in liver R1 after injection)” value with liver fibrosis [3] (BDL animals, 19 days after ligation) was 0.49 ± 0.22 s⁻¹; in the data set with liver fibrosis [3] (sham animals), 0.15 ± 0.14 s⁻¹.
